Laboratory results: BindingDB's records for doi:10.7270/Q2W66J6B (Sanford-Burnham Center For Chemical Genomics, 2009)

Biological target: T1, Dual specificity protein phosphatase 6 (Rattus norvegicus, UniProt Q64346)
T1 sequence (Q64346 whole entry): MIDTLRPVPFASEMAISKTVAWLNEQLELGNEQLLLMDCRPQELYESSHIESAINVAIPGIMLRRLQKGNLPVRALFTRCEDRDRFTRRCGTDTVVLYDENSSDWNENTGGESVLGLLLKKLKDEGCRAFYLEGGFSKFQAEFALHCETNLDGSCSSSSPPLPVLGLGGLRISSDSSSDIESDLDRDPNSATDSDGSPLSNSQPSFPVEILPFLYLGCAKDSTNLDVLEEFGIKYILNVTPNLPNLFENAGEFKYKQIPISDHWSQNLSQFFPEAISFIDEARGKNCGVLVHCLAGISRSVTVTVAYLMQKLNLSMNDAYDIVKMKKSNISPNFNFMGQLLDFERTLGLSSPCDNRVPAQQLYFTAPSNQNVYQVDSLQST
Assay: MKP-3 phosphatase inhibitors, primary screen, biochemical, rat enzyme, in vitro (AID 425)

Compound | IC50
CCN(CC)CCCN1C(=O)C(=O)C(C(=O)c2ccccc2)C1c1ccccn1 (stereo unspecified) [(4E)-1-[3-(diethylamino)propyl]-4-[hydroxy(phenyl)methylidene]-5-(2-pyridinyl)pyrrolidine-2,3-dione] | 100 µM
COC1=CC=CC(/C=N/NC(=O)c2cc3cc([N+](=O)[O-])ccc3s2)C1=O (stereo unspecified) [SMR000237814] | 116 µM
Cc1ccc(NC(=O)CN2C(=O)C(=NNC(=O)c3cc([N+](=O)[O-])ccc3O)c3ccccc32)cc1 | 31 µM
CCOc1cc(CN=Nc2nc(O)c(CC(=O)O)s2)ccc1OCc1ccc(Cl)cc1Cl [2-[2-[(N''E)-N''-[4-(2,4-dichlorobenzyl)oxy-3-ethoxy-benzylidene]hydrazino]-4-keto-2-thiazolin-5-yl]acetic acid] | 25.6 µM

These reach a lower IC50. Values come first.

IC50 | Compound
24 µM | Cc1cc(=O)oc2cc(OCC(=O)N/N=C/C3C=C([N+](=O)[O-])C=CC3=O)ccc12 (stereo unspecified) [MLS000588734]
10 µM | O=NCc1cccn1-c1cccc(C(=O)O)c1 [3-[2-(hydroximinomethyl)pyrrol-1-yl]benzoic acid]
